In patent US20090023799A1, “CRYSTALS OF (2-AMINO-4,5,6,7-TETRAHYDROBENZO[b]THIEN-3-YL)(4-CHLOROPHENYL)METHANONE” (priority 2007, published 2009):
Converted amounts (≈) assume the structure as drawn. Like-named read-outs stand apart in the source and are kept apart here. Blank lines part the entries; values can stand above or below the compound they belong to.

Experiments:
[1] = Approximate solubilities of Form I crystals of T-62 (solvent added until clear solution); format: physicochemical; settings: RT
Experimental: Solubilities for Form I crystals of T-62 may be estimated based on total solvent used to give a clear solution. A test solvent, either reagent or HPLC (high pressure liquid chromatography) grade, is added in measured aliquots, e.g., 200 or 500 μL, to an accurately weighed sample of T-62 (typically 50 to 90 mg). For some samples, sonication is applied between solvent additions to aid dissolution. Generally, solvent is added until a clear solution is obtained. Actual solubilities may be greater than those shown in Table 7 because of the volume of the solvent portions utilized or a slow rate of dissolution.

[2] = Moisture sorption/desorption analysis; format: physicochemical
Experimental: Moisture sorption/desorption analyses may be performed on a VTI SGA-100 Vapor Sorption Analyzer, or a similar instrument. Sorption and desorption data are collected, e.g., over a range of 5 to 95% relative humidity (RH) at 10% RH intervals under a nitrogen purge. Samples need not to be dried prior to analysis. Equilibrium criteria used for analysis are, e.g., less than 0.01% weight change in 5 min, with a maximum equilibration time of 3 h if the weight criterion is not met. NaCl and PVP may be used as calibration standards.

[3] = Stability to mechanical grinding/milling (ball-milling, XRPD); format: physicochemical; settings: XRPD analysis of the milled material
Description: (§1) The crystal forms of T-62 are preferably substantially stable to grinding. Stability to grinding may be assessed by measurement of an appropriate physical property before and after grinding. Where the physical property remains substantially unchanged, substantial stability to grinding is indicated. Suitable physico-chemical properties for measurement include a melting point, a X-ray diffraction pattern, an infra red absorption spectrum and a Raman spectrum, particularly the X-ray diffraction pattern. For example, Form I crystal form of T-62 is stable to mechanical milling and cryogrinding as indicated by XRPD analyses of the milled and ground material, respectively.
Stability to mechanical grinding/milling may be tested, e.g., by employing a small stainless steel cylinder. The cylinder is charged with a weighted amount of a crystal form of T-62 and a stainless steel ball is added, the cylinder is capped and the unit is placed on a Retsch Mixer Mill (Type MM 200) for a total of 3 min at a frequency of 30/s (ball-milling).

[4] = Stability to cryogrinding (XRPD); format: physicochemical; settings: XRPD analysis of the ground material
Description: as §1
Stability to cryogrinding may be tested, e.g., by employing a polycarbonate freezer mill tube. The tube is charged with a weighted amount of a crystal form of T-62 and a stainless steel rod is added, the tube is capped and the unit is shaken in a SPEX Certiprep 6750 Freezer Mill for a total of 0.6 min in liquid nitrogen at a rate of 10 Hz.

[5] = Solid-state conversion of crystal forms on heating or humidity; format: physicochemical
[6] = molecular target: T1, adenosine A1 receptors (Homo sapiens, UniProt P30542); settings: U.S. Pat. No. 6,248,774 and No. 6,489,356, cited from earlier work
T1 sequence (P30542 1-326): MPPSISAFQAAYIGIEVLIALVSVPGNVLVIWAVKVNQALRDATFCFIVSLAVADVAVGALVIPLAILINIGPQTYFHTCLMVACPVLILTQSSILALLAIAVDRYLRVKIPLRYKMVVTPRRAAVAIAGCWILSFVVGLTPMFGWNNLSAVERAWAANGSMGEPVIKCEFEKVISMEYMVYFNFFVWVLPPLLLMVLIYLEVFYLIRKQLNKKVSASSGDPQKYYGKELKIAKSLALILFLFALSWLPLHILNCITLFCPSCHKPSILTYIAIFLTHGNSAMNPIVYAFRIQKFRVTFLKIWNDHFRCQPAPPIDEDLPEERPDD

Compound: Nc1sc2c(c1C(=O)c1ccc(Cl)cc1)CCCC2 [Form I, (2-amino-4,5,6,7-tetrahydrobenzo[b]thiophen-3-yl)(4-chlorophenyl)methanone]
solubility ([1]; water): practically insoluble
solubility ([1]; aqueous with cosolvent or surfactant or cyclodextrin, thermodynamic from solid, ACN:H2O - 1:1, read-out: Solubility): 8.4 mg/mL (≈ 28.8 mM)
solubility ([1]; organic solvent or mixture, thermodynamic from solid, ACN, read-out: Solubility): 11.1 mg/mL (≈ 38 mM)
solubility ([1]; organic solvent or mixture, thermodynamic from solid, CHCl3, read-out: Solubility): 175 mg/mL (≈ 598 mM)
solubility ([1]; organic solvent or mixture, thermodynamic from solid, EtOAc, read-out: Solubility): 67.8 mg/mL (≈ 232 mM)
solubility ([1]; organic solvent or mixture, thermodynamic from solid, EtOH:H2O - 95:5, read-out: Solubility): 12.8 mg/mL (≈ 43.9 mM)
solubility ([1]; organic solvent or mixture, thermodynamic from solid, EtOH, read-out: Solubility): 16.6 mg/mL (≈ 56.9 mM)
solubility ([1]; organic solvent or mixture, thermodynamic from solid, IPA, read-out: Solubility): 13.1 mg/mL (≈ 44.9 mM)
solubility ([1]; organic solvent or mixture, thermodynamic from solid, MEK, read-out: Solubility): 132 mg/mL (≈ 453 mM)
solubility ([1]; organic solvent or mixture, thermodynamic from solid, MeOH:H2O - 95:5, read-out: Solubility): 8.7 mg/mL (≈ 29.8 mM)
solubility ([1]; organic solvent or mixture, thermodynamic from solid, MeOH, read-out: Solubility): 19.8 mg/mL (≈ 67.9 mM)
solubility ([1]; organic solvent or mixture, thermodynamic from solid, N,N-dimethylformamide (DMF), read-out: Solubility): 129 mg/mL (≈ 441 mM)
solubility ([1]; organic solvent or mixture, thermodynamic from solid, THF, read-out: Solubility): 338 mg/mL (≈ 1160 mM)
solubility ([1]; organic solvent or mixture, thermodynamic from solid, acetone, read-out: Solubility): 59.8 mg/mL (≈ 205 mM)
solubility ([1]; organic solvent or mixture, thermodynamic from solid, cyclohexane, read-out: Solubility): 9.8 mg/mL (≈ 33.6 mM)
solubility ([1]; organic solvent or mixture, thermodynamic from solid, di-n-butyl ether, read-out: Solubility): 21.4 mg/mL (≈ 73.3 mM)
solubility ([1]; organic solvent or mixture, thermodynamic from solid, dichloromethane, read-out: Solubility): 85.3 mg/mL (≈ 292 mM)
solubility ([1]; organic solvent or mixture, thermodynamic from solid, diisopropyl ether, read-out: Solubility): 5.9 mg/mL (≈ 20.2 mM)
solubility ([1]; organic solvent or mixture, thermodynamic from solid, dimethylsulfoxide (DMSO), read-out: Solubility): 183 mg/mL (≈ 626 mM)
solubility ([1]; organic solvent or mixture, thermodynamic from solid, dioxane, read-out: Solubility): 74.9 mg/mL (≈ 257 mM)
solubility ([1]; organic solvent or mixture, thermodynamic from solid, hexanes, read-out: Solubility): 5.6 mg/mL (≈ 19.2 mM)
solubility ([1]; organic solvent or mixture, thermodynamic from solid, nitromethane, read-out: Solubility): 12 mg/mL (≈ 41.1 mM)
solubility ([1]; organic solvent or mixture, thermodynamic from solid, octanol, read-out: Solubility): 19.7 mg/mL (≈ 67.5 mM)
solubility ([1]; organic solvent or mixture, thermodynamic from solid, toluene, read-out: Solubility): 45.7 mg/mL (≈ 157 mM)
Crystal form after moisture sorption/desorption analysis [2]: remains the same
Weight gain or loss in moisture sorption/desorption analysis [2]: no significant weight gain or loss
Hygroscopicity ([2]; moisture sorption/desorption analysis): non-hygroscopic
Stability to mechanical milling [3]: stable
Stability to cryogrinding [4]: stable

Compound: Nc1sc2c(c1C(=O)c1ccc(Cl)cc1)CCCC2 [Form II, (2-amino-4,5,6,7-tetrahydrobenzo[b]thiophen-3-yl)(4-chlorophenyl)methanone]
Weight gain in moisture sorption/desorption analysis ([2]; at 95% RH): 0.1%

Compound: Nc1sc2c(c1C(=O)c1ccc(Cl)cc1)CCCC2 [Form T-62, (2-amino-4,5,6,7-tetrahydrobenzo[b]thiophen-3-yl)(4-chlorophenyl)methanone]
Adverse side effects associated with administration of adenosine [6]: devoid of the adverse side effects
Effect on inflammatory and neuropathic pain ([6]; orally effective): reduce inflammatory and neuropathic pain

Next, values leading:

Crystal form conversion on heating ([5]; heating to about 104° C. under argon purge): converted to the Form I crystal form
Crystal form conversion under high humidity ([5]; high humidity, solvent is lost): converts to Form I crystal form
Crystal form conversion upon heating ([5]; upon heating): converts to Form I crystals
Compound: Nc1sc2c(c1C(=O)c1ccc(Cl)cc1)CCCC2 [Form III, (2-amino-4,5,6,7-tetrahydrobenzo[b]thiophen-3-yl)(4-chlorophenyl)methanone]

Crystal form conversion on heating ([5]; heating for 2 min at 75° C. in a sealed capillary): converted to the Form IV crystal form
Compound: Nc1sc2c(c1C(=O)c1ccc(Cl)cc1)CCCC2 [Form IV, (2-amino-4,5,6,7-tetrahydrobenzo[b]thiophen-3-yl)(4-chlorophenyl)methanone]
